# Laboratory results reported in patent US9586951B2 (FUJIFILM Corporation, priority 2013, dated 2017).
# Biological target: T1, ATM (Homo sapiens, UniProt Q13315)
# T1 construct: detecting phosphorylation of Chk2 in a human non-small cell lung cancer cell line NCI-H460 (ATCC company); host or cells: NCI-H460 human non-small cell lung cancer cells
# Test: ATM inhibition test (phosphorylation of Chk2 generated by ionizing radiation, AlphaScreen SureFire)
# Format: cell-based
# Conditions: phosphorylated Chk2 in NCI-H460 cells, ionizing radiation 8Gy, 1 hour after test compound treatment; read-out: ATM inhibitory activity
# In short: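 NCI-H460 cells treated with compound for 1 hour, then irradiated with 8Gy and incubated 1 hour at 37° C. Phospho-Chk2 measured by AlphaScreen SureFire. Inhibition ratio calculated relative to untreated irradiated and non-irradiated wells.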
# T1 sequence (Q13315 whole entry): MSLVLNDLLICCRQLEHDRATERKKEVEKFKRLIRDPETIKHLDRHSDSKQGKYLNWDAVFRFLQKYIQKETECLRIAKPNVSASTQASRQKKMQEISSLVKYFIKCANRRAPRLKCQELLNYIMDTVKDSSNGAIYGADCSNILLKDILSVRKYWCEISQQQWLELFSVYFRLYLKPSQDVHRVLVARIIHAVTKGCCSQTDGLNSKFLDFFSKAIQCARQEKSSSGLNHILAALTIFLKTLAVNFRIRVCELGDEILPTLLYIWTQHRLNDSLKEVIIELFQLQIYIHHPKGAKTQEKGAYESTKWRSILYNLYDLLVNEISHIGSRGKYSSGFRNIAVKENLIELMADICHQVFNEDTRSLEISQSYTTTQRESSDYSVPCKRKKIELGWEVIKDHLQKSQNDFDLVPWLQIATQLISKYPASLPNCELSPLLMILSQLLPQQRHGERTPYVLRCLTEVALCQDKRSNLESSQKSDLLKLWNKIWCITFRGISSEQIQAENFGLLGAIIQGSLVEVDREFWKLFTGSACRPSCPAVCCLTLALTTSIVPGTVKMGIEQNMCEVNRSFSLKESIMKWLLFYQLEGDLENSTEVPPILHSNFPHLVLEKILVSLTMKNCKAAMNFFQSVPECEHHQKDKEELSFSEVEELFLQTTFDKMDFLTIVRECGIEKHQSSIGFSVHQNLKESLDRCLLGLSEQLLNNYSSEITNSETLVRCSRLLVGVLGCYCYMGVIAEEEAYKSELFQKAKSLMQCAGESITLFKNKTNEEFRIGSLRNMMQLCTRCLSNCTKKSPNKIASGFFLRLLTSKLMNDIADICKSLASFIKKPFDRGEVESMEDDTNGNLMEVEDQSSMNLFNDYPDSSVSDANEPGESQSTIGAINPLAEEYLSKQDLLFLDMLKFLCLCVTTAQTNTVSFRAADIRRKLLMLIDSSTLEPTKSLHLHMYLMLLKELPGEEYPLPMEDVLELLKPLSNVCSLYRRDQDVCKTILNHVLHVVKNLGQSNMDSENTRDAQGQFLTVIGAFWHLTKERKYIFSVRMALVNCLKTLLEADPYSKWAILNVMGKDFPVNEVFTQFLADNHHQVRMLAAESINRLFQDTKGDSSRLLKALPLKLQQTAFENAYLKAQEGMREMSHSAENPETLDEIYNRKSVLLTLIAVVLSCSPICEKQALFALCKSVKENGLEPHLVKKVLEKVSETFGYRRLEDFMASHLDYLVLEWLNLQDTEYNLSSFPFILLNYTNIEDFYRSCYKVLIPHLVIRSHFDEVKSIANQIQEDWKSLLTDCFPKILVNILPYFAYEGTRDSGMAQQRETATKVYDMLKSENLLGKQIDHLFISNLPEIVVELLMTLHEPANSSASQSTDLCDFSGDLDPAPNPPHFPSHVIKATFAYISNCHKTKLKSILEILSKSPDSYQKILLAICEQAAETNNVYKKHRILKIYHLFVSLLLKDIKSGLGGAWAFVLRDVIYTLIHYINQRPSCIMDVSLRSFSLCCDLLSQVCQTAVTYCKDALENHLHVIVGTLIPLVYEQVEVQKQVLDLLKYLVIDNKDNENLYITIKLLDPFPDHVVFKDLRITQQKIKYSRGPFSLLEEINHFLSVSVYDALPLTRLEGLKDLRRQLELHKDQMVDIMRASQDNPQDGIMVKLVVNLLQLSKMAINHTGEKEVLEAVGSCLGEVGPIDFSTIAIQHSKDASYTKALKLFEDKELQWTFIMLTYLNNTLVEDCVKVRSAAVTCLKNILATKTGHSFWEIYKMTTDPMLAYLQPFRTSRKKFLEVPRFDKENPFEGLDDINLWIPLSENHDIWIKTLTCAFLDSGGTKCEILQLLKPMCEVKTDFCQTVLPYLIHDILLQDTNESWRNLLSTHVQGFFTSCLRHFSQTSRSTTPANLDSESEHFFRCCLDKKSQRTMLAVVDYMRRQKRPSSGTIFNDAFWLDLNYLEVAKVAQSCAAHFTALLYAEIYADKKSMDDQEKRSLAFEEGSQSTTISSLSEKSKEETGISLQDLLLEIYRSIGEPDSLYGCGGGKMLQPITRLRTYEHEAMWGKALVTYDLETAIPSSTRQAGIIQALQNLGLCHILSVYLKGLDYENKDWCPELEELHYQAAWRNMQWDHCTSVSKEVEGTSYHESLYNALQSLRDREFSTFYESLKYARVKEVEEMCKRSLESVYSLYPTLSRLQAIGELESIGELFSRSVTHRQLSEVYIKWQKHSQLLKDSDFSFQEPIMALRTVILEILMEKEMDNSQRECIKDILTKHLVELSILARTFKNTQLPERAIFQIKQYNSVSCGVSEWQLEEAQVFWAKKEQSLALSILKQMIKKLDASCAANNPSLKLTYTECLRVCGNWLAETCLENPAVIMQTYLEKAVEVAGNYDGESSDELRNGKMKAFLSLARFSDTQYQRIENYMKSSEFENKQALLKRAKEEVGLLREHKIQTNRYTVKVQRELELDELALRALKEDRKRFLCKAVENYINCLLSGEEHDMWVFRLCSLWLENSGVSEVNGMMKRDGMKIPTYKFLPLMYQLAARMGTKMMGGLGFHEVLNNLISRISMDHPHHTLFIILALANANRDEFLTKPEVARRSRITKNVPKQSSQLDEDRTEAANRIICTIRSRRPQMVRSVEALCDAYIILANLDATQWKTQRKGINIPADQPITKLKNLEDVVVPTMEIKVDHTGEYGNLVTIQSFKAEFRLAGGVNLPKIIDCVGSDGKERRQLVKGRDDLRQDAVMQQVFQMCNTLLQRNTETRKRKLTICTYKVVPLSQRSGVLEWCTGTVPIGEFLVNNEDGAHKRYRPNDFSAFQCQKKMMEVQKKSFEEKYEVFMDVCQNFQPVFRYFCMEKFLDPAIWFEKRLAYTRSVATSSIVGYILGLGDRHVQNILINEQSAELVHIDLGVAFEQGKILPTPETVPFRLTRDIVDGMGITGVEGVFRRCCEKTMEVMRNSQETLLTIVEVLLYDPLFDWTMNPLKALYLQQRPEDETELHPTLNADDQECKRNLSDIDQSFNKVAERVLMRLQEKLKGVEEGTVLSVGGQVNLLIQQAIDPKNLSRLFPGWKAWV
row,SMILES,IC50 [nM]
1,"COc1cncc(C(C)Nc2ccc3c(c2)Sc2cccc(-c4cc(N5CCOCC5)cc(=O)[nH]4)c2O3)c1 (stereo not shown) [Example 4-4-1, 6-(8-((1-(5-Methoxypyridin-3-yl)ethyl)amino)phenoxathiin-4-yl)-4-morpholinopyridin-2(1H)-one]",100 to 500
2,"CCCC(Nc1ccc2c(c1)Sc1cccc(-c3cc(N4CCOCC4)cc(=O)[nH]3)c1S2)c1cncc(OC)c1 (stereo not shown) [Example 1-12-26, 6-(7-((1-(5-Methoxypyridin-3-yl)butyl)amino)thianthren-1-yl)-4-morpholino pyridin-2 (1H)-one]",100 to 500
3,"COc1cncc(CN2CCC(Nc3ccc4c(c3)Cc3cccc(-c5cc(N6CCOCC6)cc(=O)[nH]5)c3O4)CC2)c1 [Example 2-28-2, 6-(7-((1-((5-Methoxypyridin-3-yl)methyl)piperidin-4-yl)amino)-9H-xanthen-4-yl)-4-morpholino pyridin-2(1H)-one]",500 to 2000
4,"O=c1cc(N2CCOCC2)cc(-c2cccc3c2Oc2ccc(NCc4cncc(C5CCCC5)c4)cc2C3)[nH]1 [Example 2-2-66, 6-(7-(((5-Cyclopentylpyridin-3-yl)methyl)amino)-9H-xanthen-4-yl)-4-morpholino pyridin-2(1H)-one]",< 100
5,"CC(Nc1ccc2c(c1)Cc1cccc(-c3cc(N4CCOCC4)cc(=O)[nH]3)c1O2)c1ncc(CN2CCOCC2)cn1 (stereo not shown) [Example 2-14-67, 4-Morpholino-6-(7-((1-(5-(morpholinomethyl)pyrimidin-2-yl)ethyl)amino)-9H-xanthen-4-yl)pyridin-2 (1H)-one]",500 to 2000
6,"O=c1cc(N2CCOCC2)cc(-c2cccc3c2Oc2ccc(NC4CCN(Cc5ccc(C(F)(F)F)nc5)CC4)cc2C3)[nH]1 [Example 2-28-15, 4-Morpholino-6-(7-((1-((6-(trifluoromethyl)pyridin-3-yl)methyl)piperidin-4-yl)amino)-9H-xanthen-4-yl) pyridin-2(1H)-one]",500 to 2000
7,CC(Nc1ccc2c(c1)Sc1cccc(-c3cc(N4CCOCC4)cc(=O)[nH]3)c1S2)C(=O)N1CCOCC1 (stereo not shown) [Example 1-18-5],500 to 2000
8,"O=c1cc(N2CCOCC2)cc(-c2cccc3c2Sc2ccccc2S3)[nH]1 [Example 1-53, 4-morpholino-6-(thianthren-1-yl)pyridin-2(1H)-one]",500 to 2000
9,"CNc1ccc(CNc2ccc3c(c2)Sc2cccc(-c4cc(N5CCOCC5)cc(=O)[nH]4)c2S3)cn1 [Example 1-12-8, 6-(7-(((6-(Methylamino)pyridin-3-yl)methyl)amino)thianthren-1-yl)-4-morpholino pyridin-2(1H)-one]",100 to 500
10,"CCCCN1CCCC(Nc2ccc3c(c2)Cc2cccc(-c4cc(N5CCOCC5)cc(=O)[nH]4)c2O3)C1 (stereo not shown) [Example 2-19-4, 6-(7-((1-Butylpiperidin-3-yl)amino)-9H-xanthen-4-yl)-4-morpholinopyridin-2(1H)-one]",100 to 500
11,"O=c1cc(N2CCOCC2)cc(-c2cccc3c2Oc2ccc(NCc4cncc(-c5cn[nH]c5)c4)cc2C3)[nH]1 [Example 2-8-2, 6-(7-(((5-(1H-pyrazol-4-yl)pyridin-3-yl)methyl)amino)-9H-xanthen-4-yl)-4-morpholinopyridin-2(1H)-one]",100 to 500
12,"O=c1cc(N2CCOCC2)cc(-c2cccc3c2Oc2ccc(NCc4cnccn4)cc2C3)[nH]1 [Example 2-3-5, 4-Morpholino-6-(7-((pyrazin-2-ylmethyl)amino)-9H-xanthen-4-yl)pyridin-2(1H)-one]",100 to 500
13,"CC(CN1CCN(C(C)C)CC1)Nc1ccc2c(c1)Sc1cccc(-c3cc(N4CCOCC4)cc(=O)[nH]3)c1S2 (stereo not shown) [Example 1-13-14, 6-(7-((1-(4-Isopropylpiperazin-1-yl)propan-2-yl)amino)thianthren-1-yl)-4-morpholino pyridin-2(1H)-one]",100 to 500
14,"CC(Nc1ccc2c(c1)Cc1cccc(-c3cc(N4CCOCC4)cc(=O)[nH]3)c1O2)c1ncccn1 (stereo not shown) [Example 2-14-78, 4-Morpholino-6-(7-((1-(pyrimidin-2-yl)ethyl)amino)-9H-xanthen-4-yl) pyridin-2(1H)-one]",100 to 500
15,"CC(CN1CCC(F)(F)C1)Nc1ccc2c(c1)Sc1cccc(-c3cc(N4CCOCC4)cc(=O)[nH]3)c1S2 (stereo not shown) [Example 1-43-7, 6-(7-((1-(3,3-Difluoropyrrolidin-1-yl)propan-2-yl)amino)thianthren-1-yl)-4-morpholino pyridin-2(1H)-one]",100 to 500
16,"Cc1cncc(C(C)Nc2ccc3c(c2)Cc2cccc(-c4cc(N5CCOCC5)cc(=O)[nH]4)c2O3)c1 (stereo not shown) [Example 2-14-22, 6-(7-((1-(5-Methylpyridin-3-yl)ethyl)amino)-9H-xanthen-4-yl)-4-morpholino pyridin-2(1H)-one]",100 to 500
17,"O=c1cc(N2CCOCC2)cc(-c2cccc3c2Oc2ccc(NC4CCN(CCc5ccc(F)cc5)CC4)cc2C3)[nH]1 [Example 2-30-14, 6-(7-((1-(4-Fluorophenethyl)piperidin-4-yl)amino)-9H-xanthen-4-yl)-4-morpholino pyridin-2(1H)-one]",100 to 500
18,"CC(Nc1ccc2c(c1)Cc1cccc(-c3cc(N4CCOCC4)cc(=O)[nH]3)c1O2)c1cc(C#N)ncn1 (stereo not shown) [Example 2-14-60, 6-(1-((5-(4-Morpholino-6-oxo-1,6-dihydropyridin-2-yl)-9H-xanthen-2-yl)amino)ethyl)pyrimidine-4-carbonitrile]",100 to 500
19,"O=c1cc(N2CCOCC2)cc(-c2cccc3c2Oc2ccc(NCCN4CCOCC4)cc2C3)[nH]1 [Example 2-23-2, 4-Morpholino-6-(7-((2-morpholinoethyl)amino)-9H-xanthen-4-yl)pyridin-2(1H)-one]",500 to 2000
20,"COc1cncc(CNc2ccc3c(c2)Cc2cccc(-c4cc(N5CCOCC5)cc(=O)[nH]4)c2S3)c1 [Example 3-8-9, 6-(7-(((5-Methoxypyridin-3-yl)methyl)amino)-9H-thioxanthen-4-yl)-4-morpholino pyridin-2 (1H)-one]",100 to 500
21,"COc1cc(CNc2ccc3c(c2)Cc2ccnc(-c4cc(N5CCOCC5)cc(=O)[nH]4)c2O3)cnc1OC [Example 2-41-10, 6-(7-(((5,6-Dimethoxypyridin-3-yl)methyl)amino)-5H-chromeno[2,3-c]pyridin-1-yl)-4-morpholino pyridin-2(1H)-one]",100 to 500
22,"Cc1ccnc(C(CO)Nc2ccc3c(c2)Cc2cccc(-c4cc(N5CCOCC5)cc(=O)[nH]4)c2O3)c1 (single isomer, unassigned) [Example 2-14-91, 6-(7-((2-hydroxy-1-(4-methylpyridin-2-yl)ethyl)amino)-9H-xanthen-4-yl)-4-morpholinopyridin-2(1H)-one]",100 to 500
23,"O=C(CN1CCOCC1)Nc1ccc2c(c1)Sc1cccc(-c3cc(N4CCOCC4)cc(=O)[nH]3)c1S2 [Example 1-7-4, 2-Morpholino-N-(6-(4-morpholino-6-oxo-1,6-dihydropyridin-2-yl)thianthren-2-yl)acetamide]",100 to 500
24,"CC(Nc1ccc2c(c1)Sc1cccc(-c3cc(N4CCOCC4)cc(=O)[nH]3)c1S2)C1CC1 (stereo not shown) [Example 1-12-43, 6-(7-((1-Cyclopropylethyl)araino)thianthren-1-yl)-4-morpholino pyridin-2(1H)-onc]",500 to 2000
25,"O=c1cc(N2CCOCC2)cc(-c2cccc3c2Oc2ccc(NCc4cncnc4)cc2C3)[nH]1 [Example 2-3-2, 4-Morpholino-6-(7-((pyrimidin-5-ylmethyl)amino)-9H-xanthen-4-yl) pyridin-2(1H)-one]",100 to 500
